Data published in US8288432B2, “Tetrahydroindole derivatives as NADPH oxidase inhibitors” (Genkyotex SA, priority 2007, dated 2012).

Key:
Type in all cases: cell-based, human
NOX activity in HUVEC = test: H2DCF-DA (DCF fluorescence) ROS measurement in TGF-β stimulated HUVEC; settings: 'usually'
Description: Human Umbilical Vein Endothelial Cells (HUVEC)
HUVEC are cultured in endothelial basal medium supplemented with hydrocortisone (1 μg/mL, CalbioChem), bovine brain extract (12 μg/mL), gentamicin (50 μg/mL, CalbioChem), amphotericin B (50 ng/mL, CalBioChem EGF (10 ng/mL, and 10% FCS until the fourth passage. When the fifth passage was started, cells were cultured with a lower concentration of FCS (2%) in the absence of EGF, if not indicated otherwise. All experiments were done with cells of the fifth passage. The cells were incubated with OxLDL (oxidized low-density lipoprotein) or its buffer as control for 24 h, before detection of O2^− formation.
4. 2′,7′-dichlorodihydrofluorescein diacetate (H2DCF-DA)
HUVEC were plated on coverslips and made quiescent overnight in 0.5% BSA before stimulation with TGF-β. Cells were loaded for 10 minutes with 5 μM CM-H2DCFDA in phenol-red-free medium in the dark and then treated with TGF-β (R&D Systems) in the presence or absence of compounds according to the invention. […] DCF fluorescence was visualized at an excitation wavelength of 488 nm and emission at 515 to 540 nm. […] For calculation, the absorbance at […] was normalized to absorbance at […] for each individual well. […] NOX activities were expressed as % of the activity in control cells. […]

[1] = tested on: NOX activity in DMSO-differentiated HL60 cells; test: Amplex Red measurement of extracellular hydrogen peroxide (NOX activity) in DMSO-differentiated HL60 cells; settings: DPI 10 μM, 'usually'
Description: Human acute myeloid leukemia cell line HL-60 was cultured in RPMI 1640 (Invitrogen) supplemented with 10% heat-inactivated calf serum, 2 mM glutamine, 100 U/mL penicillin (Sigma), and 100 μg streptomycin (Sigma) at 37° C. under a humidified atmosphere of 5% CO2. HL60 differentiation to the neutrophil phenotype was triggered by adding Me2SO (final concentration 1.25% v/v for 6 days) to the culture medium.
Extracellular hydrogen peroxide was measured using Amplex UltraRed (Molecular Probes). Cells were trypsinized (1× Trypsin-EDTA), collected by centrifugation, and resuspended in HBSS supplemented with 1% glucose. Cells were seeded into black 96-well plates at a density of 50'000 cells in 200 μl testing buffer (HBSS 1% glucose containing 0.005 U/mL horseradish peroxidase (Roche) and 50 μM Amplex Red in the presence or absence of compounds according to the invention. As a control, DPI was included at a final concentration of 10 μM The plates were placed in the fluorescent Optima Fluorescent plate reader and kept at 37° C. during 20 min. Fluorescence was measured for […] with excitation and emission wavelengths of 544 and 590 nm respectively. NOX activities were expressed as % of the activity in control cells. […]
The table 1 below summarizes the percentage of inhibition of NOX activity as measured by Amplex Red using DMSO-differentiated HL60 cells as described above: […]

[2] = tested on: NOX activity (superoxide formation in cells); test: Nitroblue tetrazolium (NBT) test of intracellular and extracellular superoxide in cell cultures; settings: DPI 10 μM, 'usually'
Description: The activity of the compounds according to the invention may be tested for their activity in the inhibition or reduction of formation of reactive oxygen species (ROS) from oxygen in cells. The activity of the compounds is tested in the following cell cultures by different techniques such as nitroblue tetrazolium, Amplex Red, Chemiluminescence (Luminol) and 2′,7′-dichlorodihydrofluorescein diacetate (H2DCF-DA) according to the protocols detailed below.
Human microglia cell line (HMC3, human microglia clone 3) (Janabi et al, 1995, Neurosci Lett 195:105) were cultured in MEM (Eagle's minimum essential medium) containing 10% FBS with 50 U/mL penicillin G sodium 50 μg/mL streptomycin sulfate, and incubated at 37° C. for 24 hours. IFN-γ (human IFN-γ, Roche. 11 040 596 001) was added to the culture medium for a final concentration of 10 ng/mL 24 h, before detection of O2^− formation. […]
Intracellular and extracellular superoxide was measured by a colorimetric technique using a quantitative nitroblue tetrazolium (NBT) test. SOD-inhibitable conversion of NBT to formazan, a fine blue precipitate, in the presence of superoxide anion was measured using Fluostar Optima spectrometer (BMG labtech). […] The absorption was measured at 630 nm. For calculation, the absorbance at 630 nm was normalized for each individual well. […] NOX activities were expressed as % of the activity in control cells. […]

[3] = tested on: NOX activity (ROS in cells); test: Chemiluminescence (luminol) measurement of ROS in cells; settings: 'usually'
Description: 3. Chemiluminescence (Luminol)
ROS was measured using the chemiluminescent probe luminol. Cells were cultured and plated as for Amplex Red except that the Amplex Red agent was replaced by 10 μg/mL luminol (Sigma 09235). Light emission was recorded continuously at 37° C. for 60 minutes using the luminescence function of the FluoStar Optima fluorescent plate reader. The mean of the four blank values was subtracted from each corrected value for each time point. NOX activities were expressed as % of the activity in control cells. Residual activity of DPI-treated cells was usually <10%.

Measured: Residual activity of DPI-treated cells (NOX activity as % of the activity in control cells)

c1ccc([I+]c2ccccc2)cc1 [DPI, Diphenyliodonium]
< 10%: all assays above
